Laboratory results published in the supplement of paper PMC10307832.

Columns and labels:
Experiment in all cases: relative viability (nuclei count vs DMSO), 5 days (fraction); higher = more cells survive
[1] = compound: CCC1=CN=CN=C1N2CCN(CC2)CC3=NC4=C(N3)C=C(C=C4)C(F)(F)F + Cc1nc(Nc2ncc(C(=O)Nc3c(C)cccc3Cl)s2)cc(N2CCN(CCO)CC2)n1 [Dasatinib] (partner 0.075 µM)
Outline: (§1)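 After 5 days of treatment, lung cancer cells in 1536-well plates were fixed and stained in a single step (final 0.05% Triton X-100, 1% formaldehyde, 1 ug/ml Hoechst) and their nuclei counted on 4× images. Treatment had been applied by pin tool the day after seeding as one drug alone or as a fixed anchor-drug dose with five library-drug doses (not always all listed) in √10 steps. Relative viability is the nuclei count of treated wells divided by that of vehicle wells, and values are medians of duplicate plates.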

[2] = compound: CCn1c(-c2nonc2N)nc2cnc(Oc3cccc(NC(=O)c4ccc(OCCN5CCOCC5)cc4)c3)cc21 + CC(=O)c1c(C)c2cnc(Nc3ccc(N4CCNCC4)cn3)nc2n(C2CCCC2)c1=O [Palbociclib] (partner 0.5 µM)
Outline: as §1

[3] = compound: CCn1c(-c2nonc2N)nc2cnc(Oc3cccc(NC(=O)c4ccc(OCCN5CCOCC5)cc4)c3)cc21 + Nc1nc2[nH]cc(CCc3ccc(C(=O)N[C@@H](CCC(=O)O)C(=O)O)cc3)c2c(=O)[nH]1 [Pemetrexed] (partner 0.2 µM)
Outline: as §1

[4] = compound: CCn1c(-c2nonc2N)nc2cnc(Oc3cccc(NC(=O)c4ccc(OCCN5CCOCC5)cc4)c3)cc21 + CC1(C)CCC(c2ccc(Cl)cc2)=C(CN2CCN(c3ccc(C(=O)NS(=O)(=O)c4ccc(N[C@H](CCN5CCOCC5)CSc5ccccc5)c(S(=O)(=O)C(F)(F)F)c4)cc3)CC2)C1 [Navitoclax] (partner 0.5 µM)
Outline: as §1

| Cell Line | relative viability ([1]; first compound 0.04 µM) | relative viability ([1]; first compound 0.1265 µM) | relative viability ([1]; first compound 0.4 µM) | relative viability ([1]; first compound 1.265 µM) | relative viability ([1]; first compound 4 µM) | relative viability ([2]; first compound 0.04 µM) | relative viability ([2]; first compound 0.1265 µM) | relative viability ([2]; first compound 0.4 µM) | relative viability ([2]; first compound 1.265 µM) | relative viability ([2]; first compound 4 µM) | relative viability ([3]; first compound 0.04 µM) | relative viability ([3]; first compound 0.1265 µM) | relative viability ([3]; first compound 0.4 µM) | relative viability ([3]; first compound 1.265 µM) | relative viability ([3]; first compound 4 µM) | relative viability ([4]; first compound 0.04 µM) | relative viability ([4]; first compound 0.1265 µM) | relative viability ([4]; first compound 0.4 µM) | relative viability ([4]; first compound 1.265 µM) | relative viability ([4]; first compound 4 µM) |
| --- | --- | --- | --- | --- | --- | --- | --- | --- | --- | --- | --- | --- | --- | --- | --- | --- | --- | --- | --- | --- |
| 201T | 0.527 | 0.565 | 0.559 | 0.568 | 0.541 | 0.359 | 0.366 | 0.368 | 0.354 | 0.345 | 0.356 | 0.347 | 0.343 | 0.263 | 0.303 | 1.16 | 1.19 | 1.18 | 1.21 | 1.14 |
| A549 |  |  |  |  |  |  |  |  |  |  |  |  |  |  |  | 1.37 | 1.08 | 0.828 | 0.0937 | 0.0515 |
| A-427 | 0.563 | 0.753 | 0.659 | 0.614 | 0.655 | 0.46 | 0.495 | 0.412 | 0.283 | 0.275 | 0.876 | 0.708 | 0.529 | 0.228 | 0.318 | 1.04 | 1.07 | 0.887 | 0.964 | 1.01 |
| ABC-1 | 0.66 | 0.507 | 0.614 | 0.495 | 0.449 | 0.647 | 0.941 | 0.635 | 0.332 | 0.393 |  |  |  |  |  |  |  |  |  |  |
| BEN | 0.241 | 0.261 | 0.303 | 0.335 | 0.288 | 0.473 | 0.469 | 0.472 | 0.77 | 0.441 | 0.725 | 0.647 | 0.395 | 0.412 | 0.534 | 0.0536 | 0.0704 | 0.0589 | 0.0468 | 0.0489 |
| CAL-12T | 0.336 | 0.352 | 0.417 | 0.518 | 0.36 | 0.778 | 0.619 | 0.47 | 0.345 | 0.298 | 1.81 | 1.38 | 1.39 | 1.04 | 0.996 | 1.83 | 1.46 | 1.61 | 1.35 | 0.955 |
| COR-L23 | 0.536 | 0.477 | 0.502 | 0.481 | 0.484 | 0.308 | 0.25 | 0.129 | 0.173 | 0.127 | 0.211 | 0.19 | 0.194 | 0.164 | 0.123 | 1.04 | 0.817 | 0.59 | 0.172 | 0.157 |
| COR-L 105 | 0.279 | 0.316 | 0.362 | 0.399 | 0.338 | 0.407 | 0.402 | 0.344 | 0.36 | 0.336 | 1.13 | 0.965 | 1.09 | 0.615 | 0.507 | 0.618 | 0.762 | 0.522 | 0.262 | 0.355 |
| Calu-6 |  |  |  |  |  |  |  |  |  |  |  |  |  |  |  | 0.835 | 0.759 | 0.64 | 0.353 | 0.306 |
| ChaGo-K-1 | 0.654 | 0.635 | 0.555 | 0.615 | 0.492 | 1.08 | 0.896 | 0.846 | 0.907 | 0.928 | 0.263 | 0.25 | 0.238 | 0.235 | 0.239 | 1.42 | 0.876 | 0.762 |  | 0.712 |
| EBC-1 |  |  |  |  |  |  |  |  |  |  |  |  |  |  |  | 0.519 | 0.341 | 0.429 | 0.323 | 0.261 |
| EKVX | 0.558 | 0.484 | 0.527 | 0.491 | 0.415 | 0.566 | 0.368 | 0.365 | 0.348 | 0.329 | 0.516 | 0.371 | 0.346 | 0.359 | 0.313 | 1.13 | 1.01 | 0.861 | 0.895 | 0.831 |
| EMC-BAC-2 | 0.358 | 0.354 | 0.322 |  | 0.289 | 0.517 | 0.458 | 0.397 | 0.369 | 0.389 | 0.419 | 0.377 | 0.298 | 0.298 | 0.311 | 1.44 | 1.2 | 1.18 | 1.16 | 1.19 |
| EPLC-272H | 0.332 | 0.33 | 0.313 | 0.291 | 0.421 | 0.391 | 0.406 | 0.302 | 0.316 | 0.296 | 0.392 | 0.328 | 0.253 | 0.239 | 0.119 | 1.22 | 1.07 | 1.1 | 1.05 | 1.1 |
| H3255 | 0.308 | 0.294 | 0.347 | 0.367 | 0.317 | 0.293 | 0.311 | 0.318 | 0.296 | 0.305 | 0.528 | 0.512 | 0.503 | 0.432 | 0.431 | 0.675 | 0.551 | 0.454 | 0.329 | 0.35 |
| HARA | 0.371 | 0.337 | 0.19 |  | 0.203 | 0.278 | 0.232 | 0.242 | 0.172 | 0.199 | 0.211 | 0.233 | 0.205 | 0.181 | 0.212 | 1.19 | 1.02 | 1.09 | 1.18 | 1.14 |
| HCC-15 | 0.632 | 0.552 | 0.597 | 0.624 | 0.594 | 0.758 | 0.665 | 0.673 | 0.596 | 0.7 | 0.229 | 0.214 | 0.217 | 0.197 | 0.205 | 0.876 | 0.636 | 0.693 | 0.586 | 0.708 |
| HCC-44 |  |  |  |  |  | 1.01 | 1.01 | 1.02 | 1.08 | 0.878 | 0.62 | 0.652 | 0.547 | 0.678 | 0.425 | 0.944 | 1.07 | 1.14 | 1 | 0.963 |
| HCC-78 | 0.327 | 0.416 | 0.374 | 0.316 | 0.363 | 0.446 | 0.445 | 0.525 | 0.533 | 0.452 | 0.959 | 0.847 |  | 0.929 | 0.951 | 1.05 | 0.782 | 0.848 | 0.878 | 0.926 |
